Measurements published in patent US8592451B2, “Reversible nondepolarizing neuromuscular blockade agents and methods for their use” (Cornell University, priority 2009, dated 2013).

Tests used:
[1] = L-cysteine adduction kinetics in vitro (HPLC); format: physicochemical; details: pH 7.4, 37° C.; for NMBA peak area / [NMBA] remaining / ln* = ln (([NMBA]t[L-cysteine]t=0)/([NMBA]t=0[L-cysteine]t)): gantacurium 200 μg/mL + L-cysteine
Experimental: In a second experiment, to evaluate degradation in the presence of L-cysteine, buffered solutions (pH 7.4) of gantacurium, CW 002 or CW 011 were freshly prepared at 37° C. to give experimental concentrations of 1000 μg/mL (CW 002 and CW 011) and 200 μg/mL (gantacurium), after addition to and mixing with a 5% Molar excess of L-cysteine at time=0.
The concentration of neuromuscular blocking agent/parent compound remaining at specified time points after mixing was determined by high performance liquid chromatography. The concentration of blocking agent at each time point was determined from a separately prepared reaction mixture, due to the rapid rate of L-cysteine adduction. The reaction rate constant for the second order reaction of each neuromuscular blockade agent (NMBA) with L-cysteine was derived by plotting the natural log of ([NMBA]t[L-cysteine]t=0/[NMBA]t=0[L-cysteine]t) vs. time.
Concentrations selected were 200, 100 and 50 μg/ml which are approximately proportional to the relative potencies (ED 95) of gantacurium, CW 002 and CW 011 respectively. A degradation (adduction) pathway in the presence of L-cysteine for each of the three compounds was proposed.
The reaction of L-cysteine with CW 002, CW 011 or gantacurium is first order in the case of both the neuromuscular blockade agent (NMBA) and L-cysteine, represented by the rate equation (1). d[Adduct]/dt=−d[NMBA]/dt=ka[NMBA][L-cysteine] (1)
Calculation of the L-cysteine adduction half time requires experimental derivation of the reaction rate constant, ka, for each compound. The initial concentrations of NMBA and L-cysteine are unequal in the experiments conducted for this study, thus integration of equation 1 gives equation 2, where [NMBA]0 is the NMBA concentration at time equals 0 and [NMBA]t is the NMBA concentration at a time point, t.
[formula] A plot of the ln(([NMBA]t [L-cysteine]0)/([NMBA]0 [L-cysteine]t)) versus time (ln* vs. t) gives a line, with slope equal to ka([NMBA]0−[L-cysteine]0). An adduction reaction half time can be calculated by solving for ka to be used in equation 3.
NMBA standard solutions were prepared by a method similar to that used to prepare hydrolysis standards. The standards were prepared at 1000 μg/mL for CW 002 and CW 011 and 200 μg/mL for gantacurium.
Solutions used for determination of NMBA concentration at the reported times for CW 002 and CW 011 were prepared as follows: L-cysteine hydrochloride monohydrate was charged to a volumetric flask in de-ionized water. A 5 mL aliquot of the L-cysteine solution (1.05 equiv. L-cysteine with respect to NMBA) was transferred by volumetric pipette to a flask held at 37.0±0.3° C. CW 002 or CW 011 was then charged to a separate 25 mL volumetric flask and diluted to volume with pH 7.4 phosphate buffer at 37.0° C. The NMBA solution was then immediately transferred to the flask containing L-cysteine to give an initial NMBA concentration of 1000 μg/mL. Solutions used for determination of gantacurium concentration versus time were prepared in a similar manner to give an initial concentration of 200 μg/mL. T=0 was defined as the time of addition of NMBA solution to L-cysteine solution. The times listed in the results table show the point of HPLC sample injection following mixing of L-cysteine and NMBA at time=0 (Table 1, below).
Rate constants were calculated using equation (3) and the slope of the trend line derived from each data set. The strong linear correlation of the data within each set supports the use of second order kinetics for analysis of the cysteine adduction reactions.
Reaction half times were calculated using equation 4 and the experimentally determined rate constants. The initial NMBA concentrations were chosen to reflect the relative potency observed in vivo.

[2] = tested on: twitch of the extensor digitorum; test: Reversal of neuromuscular blockade by L-cysteine or neostigmine in anesthetized rhesus monkeys; format: in vivo, rhesus monkeys (Macaca mulatta)
Experimental: A control dose of 0.15 mg/kg CW 002 was allowed to recover spontaneously to TOF 110-120%. A second dose was given 60 minutes later, followed one minute afterwards by either neostigmine (0.05 mg/kg+atropine 0.05 mg/kg) or L-cysteine (10, 20, 30 or 50 mg/kg). Total duration and 5-95% recovery intervals were compared during spontaneous recovery vs. antagonism by L-cysteine or reversal by neostigmine.
This series of paired comparisons was designed to generate dose-response data comparing spontaneous recovery of high doses of CW 011 (from 4 to 64× ED95) versus immediate antagonism at +1 min by an optimal dose of L-cysteine (50 mg/kg), previously determined during studies of immediate antagonism of CW 002. This experiment was done to explore the limits of chemical antagonism by L-cysteine of these olefinic diester neuromuscular blocking drugs, using CW 011 as a typical example with an intermediate duration of action. Five groups of animals first received a control dose of CW 011 at 4, 8, 16, 32 or 64× ED 95 (0.1 to 1.6 mg/kg). Sixty minutes after spontaneous recovery of the control dose to TOF 110-120%, the same dose was repeated, followed 1 min later by L-cysteine (50 mg/kg). Total duration of action and 5-95% recovery interval were compared during spontaneous recovery and following antagonism by L-cysteine
The reversal of neuromuscular blockade by cysteine (5-50 mg/kg i.v.) was studied. Reversal was tested as follows: full paralysis was induced by injection of a dose of approximately 2-6× ED 95 of the compound in question. After spontaneous recovery of this dose, a second identical dose was given 15-30 min later. Cysteine was then given at +1 min after injection of the neuromuscular blocking drug at a point where no twitch was apparent (“immediate reversal”) or at the beginning of recovery from neuromuscular blockade at two percent twitch height (“classical reversal”). Comparisons were made among compounds with respect to rapidity and ease of cysteine reversal, by comparing 5-95% recovery times, and total durations of action (injection to 95% twitch recovery). Spontaneous recovery was compared with cysteine-accelerated recovery. […]

[3] = tested on: twitch of the extensor digitorum; test: Neuromuscular blocking potency and duration in anesthetized rhesus monkeys; format: in vivo, rhesus monkeys (Macaca mulatta)
Experimental: Experiments were approved by the Institutional Animal Care and Use Committee of Weill Medical College of Cornell University (New York, N.Y.) and of Albany Medical College (Albany, N.Y.), where the studies were conducted. A colony of 10 adult male monkeys (Macaca mulatta) weighing 8-18 kg was studied at ˜6 week intervals. Animals were housed and cared for in accordance with the Guide for Care and Use of Laboratory Animals (National Research Council, Washington, D.C.). They were fed a standard Old World monkey diet, enriched with fruits and vegetables, and other dietary novelties and were followed throughout the study to verify normal health by physical examination, body weight, and clinical laboratory studies (Complete Blood Count, Blood Urea Nitrogen and creatinine, and liver function tests).
On the day of each study, monkeys received ketamine (7-10 mg/kg i.m.) followed by tracheal intubation under topical anesthesia with 4% lidocaine. Ventilation was controlled at 10 mL/kg and 20 breaths/min with isoflurane (1.0-2.0%) and N2O/O2 (2:1 mixture). Ringers lactate was administered at ˜10 ml kg^−1 h^−1. Arterial pressure was monitored from a femoral, superficial tibial, or radial (22 gauge) cannula. Heart rate was measured by tachograph from the arterial pulse wave. Core temperature was kept at 36.5-38.0° C. by warming blankets. Electrocardiogram and pulse oximetry were monitored continuously.
Needle electrodes (25 gauge) transmitting square-wave pulses of 0.2 msec duration at supramaximal voltage which were generated by a Grass S-88 stimulator (Grass Instruments, Quincy, Mass.) were placed at the peroneal nerve at the knee to elicit twitch responses of the extensor digitorum of the foot at 0.15 Hz. A small slip (10-20%) of the tendon was dissected free under sterile technique and tied to a Grass FT 10 force transducer (Grass Instruments, Quincy, Mass.) at a baseline tension of 50 gm. Train-of four stimulation (TOF, 2 Hz for 2 sec) was interposed at appropriate points, especially 1-2 min prior to NMBA dosing and following recovery of twitch to 95% of baseline, where TOF was subsequently evaluated every 1-2 min.
Recordings of circulatory and neuromuscular data were made on a Grass 7B polygraph (Grass Instruments). A baseline period of 15-20 min was allowed for stabilization of recordings prior to dosing.^2
Dose-response curves for twitch blockade by gantacurium, CW 002, CW 011, cisatracurium, CW002-Cys, NB 938-69, NB 1064-81, NB 802-17 (CW 001), NB 832-65, and NB 1163-79, structures of which are all shown above, were generated as follows. […] Successive doses were separated by at least three estimated half lives beyond complete recovery of the previous dose to TOF of 110-120%, which is normal for these monkeys. Only the first one or two doses yielding 5 to 99% blockade were included from any single experiment for computation of dose-response data.
Comparative studies of spontaneous recovery versus antagonism/reversal were done at least 3 estimated half-lives following dose-response studies.
ED 50 and ED 95 were computed from the regression of log dose vs. the logit of percentage blockade of twitch.
CW002-Cys, the L-cysteine adduct of CW 002, was available in limited quantity and was administered in cumulative fashion to three animals to compare approximate potency and duration of effect versus its parent compound CW 002.

What does the source list for COc1cc2c(cc1OC)[C@H](c1cc(OC)c(OC)c(OC)c1)[N@@+](C)(CCCOC(=O)/C=C(\Cl)C(=O)OCCC[N@+]1(C)CCc3cc(OC)c(OC)cc3[C@H]1Cc1cc(OC)c(OC)c(OC)c1)CC2 [Gantacurium, reference compound]?
Plot Slope (ln* vs. time) ([1]; L-cysteine adduction, data of Table 1): −0.0145; NMBA peak area ([1]; Trial 1, 59 Sec): 476.7 mAU's; [NMBA] remaining ([1]; Trial 1, 59 Sec): 33 µM; ln* = ln (([NMBA]t[L-cysteine]t=0)/([NMBA]t=0[L-cysteine]t)) ([1]; Trial 1, 59 Sec): −0.46; NMBA peak area ([1]; Trial 2, 67 Sec): 384.2 mAU's; [NMBA] remaining ([1]; Trial 2, 67 Sec): 27 µM; ln* = ln (([NMBA]t[L-cysteine]t=0)/([NMBA]t=0[L-cysteine]t)) ([1]; Trial 2, 67 Sec): −0.56; NMBA peak area ([1]; Trial 3, 70 Sec): 344.2 mAU's; [NMBA] remaining ([1]; Trial 3, 70 Sec): 24 µM; ln* = ln (([NMBA]t[L-cysteine]t=0)/([NMBA]t=0[L-cysteine]t)) ([1]; Trial 3, 70 Sec): −0.62; NMBA peak area ([1]; Trial 4, 78 Sec): 281.5 mAU's; [NMBA] remaining ([1]; Trial 4, 78 Sec): 20 µM; ln* = ln (([NMBA]t[L-cysteine]t=0)/([NMBA]t=0[L-cysteine]t)) ([1]; Trial 4, 78 Sec): −0.73; ka, second order rate constant of L-cysteine adduction [1]: 529.6 M⁻¹ s⁻¹; half-life at 200 μg/ml ([1]; pH 7.4 buffered solution with L-cysteine, calculated at [NMBA]0 0.000188 M (200 μg/ml), read-out: L-cysteine adduction reaction half time t1/2): 12 s; effect of neostigmine given immediately after the blocking drug ([2]; immediate reversal): ineffective; classical antagonism of neuromuscular blockade by neostigmine ([2]; neostigmine given at beginning of spontaneous recovery, e.g. at 2% twitch height): showed antagonism

For COc1ccc(C[C@@H]2c3cc(OC)c(OC)cc3CC[N@@+]2(C)CCCOC(=O)CCC(=O)OCCC[N@+]2(C)CCc3cc(OC)c(OC)cc3[C@H]2Cc2ccc(OC)c(OC)c2)cc1OC [NB 1163-79], which “Duration (± SD/SEM), from injection to recovery of twitch to 95% of baseline” value ([3]; administered dose 0.04 mg/kg, spontaneous recovery) is on record?
Its value is 27.2 ± 2.6 min.

What about the “ED 95 (± SD/SEM)” value ([3]; twitch blockade, monkeys under isoflurane, twitch at 0.15 Hz, calculated from dose-response curve) of the same molecule?
Its value is 0.032 ± 0.003 mg/kg.
